In ChEMBL document CHEMBL4321866, “Discovery of Highly Potent and Efficient PROTAC Degraders of Androgen Receptor (AR) by Employing Weak Binding Affinity VHL E3 Ligase Ligands” (J Med Chem, 2019) one finds Activity data, which are given here for eleven compounds.

Common to all, as to format: cell-based
For assay [1], the target named is T1, von Hippel-Lindau disease tumor suppressor/Androgen receptor (Homo sapiens, UniProt P10275+P40337). The experiment in a line: Protac activity against VHL/AR in AR-positive human LNCAP cells assessed as induction of AR degradation at 0.01 uM incubated for 6 hrs by Western blot analysis relative to control.
The target in assay [2] is T1, von Hippel-Lindau disease tumor suppressor/Androgen receptor. The experiment in a line: Protac activity against VHL/AR in AR-positive human LNCAP cells assessed as induction of AR degradation at 0.1 uM incubated for 6 hrs by Western blot analysis relative to control.
For assay [3] the target is unchanged. The experiment in a line: Protac activity against VHL/AR in AR-positive human LNCAP cells assessed as induction of AR degradation at 1 uM incubated for 6 hrs by Western blot analysis relative to control.

Each structure is given as a SMILES string.

T1 sequence (P10275 whole entry, looked up): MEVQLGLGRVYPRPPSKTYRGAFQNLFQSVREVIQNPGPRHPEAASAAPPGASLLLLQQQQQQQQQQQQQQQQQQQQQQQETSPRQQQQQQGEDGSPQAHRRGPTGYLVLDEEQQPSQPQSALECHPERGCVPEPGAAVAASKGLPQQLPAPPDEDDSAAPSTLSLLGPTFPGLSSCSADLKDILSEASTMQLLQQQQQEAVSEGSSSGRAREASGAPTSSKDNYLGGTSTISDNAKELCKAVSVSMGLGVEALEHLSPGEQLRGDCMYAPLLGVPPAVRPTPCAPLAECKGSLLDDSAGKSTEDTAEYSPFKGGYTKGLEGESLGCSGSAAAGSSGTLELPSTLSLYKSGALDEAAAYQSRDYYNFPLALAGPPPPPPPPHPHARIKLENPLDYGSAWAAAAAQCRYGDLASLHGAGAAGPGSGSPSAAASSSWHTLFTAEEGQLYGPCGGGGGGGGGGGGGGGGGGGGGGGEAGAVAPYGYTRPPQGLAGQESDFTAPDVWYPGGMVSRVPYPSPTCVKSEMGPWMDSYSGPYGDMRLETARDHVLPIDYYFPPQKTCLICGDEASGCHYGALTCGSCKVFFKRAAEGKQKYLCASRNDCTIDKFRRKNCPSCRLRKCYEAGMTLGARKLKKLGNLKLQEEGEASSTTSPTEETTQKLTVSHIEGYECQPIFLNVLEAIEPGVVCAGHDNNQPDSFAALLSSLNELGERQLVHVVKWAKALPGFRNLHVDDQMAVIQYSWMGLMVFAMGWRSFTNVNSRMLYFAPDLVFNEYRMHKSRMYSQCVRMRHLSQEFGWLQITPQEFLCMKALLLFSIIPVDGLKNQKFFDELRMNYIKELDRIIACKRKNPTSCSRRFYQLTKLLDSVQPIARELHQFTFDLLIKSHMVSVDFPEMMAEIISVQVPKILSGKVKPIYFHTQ
T1 sequence (P40337 whole entry, looked up): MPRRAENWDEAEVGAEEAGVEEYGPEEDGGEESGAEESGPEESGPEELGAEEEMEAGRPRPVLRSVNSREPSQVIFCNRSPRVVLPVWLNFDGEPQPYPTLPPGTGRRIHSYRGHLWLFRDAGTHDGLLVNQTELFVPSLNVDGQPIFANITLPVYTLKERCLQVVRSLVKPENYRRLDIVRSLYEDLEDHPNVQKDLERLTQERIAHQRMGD

`Cc1cc([C@H](C(=O)N2C[C@H](O)C[C@H]2C(=O)N[C@@H](CC(=O)N2CCC(N3CC(c4ccc(C(=O)N[C@H]5C(C)(C)[C@H](Oc6ccc(C#N)c(Cl)c6)C5(C)C)cc4)C3)CC2)c2ccccc2)C(C)C)on1`: the results for the Activity in assay [1], in assay [2] and in assay [3] were 40%, more than 95% and more than 99%, respectively.

In the case of `Cc1cc([C@H](C(=O)N2C[C@H](O)C[C@H]2C(=O)N[C@@H](CC(=O)N2CC(N3CCC(C#Cc4ccc(C(=O)N[C@H]5C(C)(C)[C@H](Oc6ccc(C#N)c(Cl)c6)C5(C)C)cc4)CC3)C2)c2ccccc2)C(C)C)on1`, the Activity in assay [1] is 21%; in assay [2], 67%; in assay [3], 68%.

With `Cc1cc([C@H](C(=O)N2C[C@H](O)C[C@H]2C(=O)N[C@@H](CC(=O)N2CCC(N3CCC(C#Cc4ccc(C(=O)N[C@H]5C(C)(C)[C@H](Oc6ccc(C#N)c(Cl)c6)C5(C)C)cc4)CC3)CC2)c2ccc(Cl)cc2)C(C)C)on1`, the Activity in assay [1] was 85%; in assay [2], more than 95%; in assay [3], more than 99%.

Consider `Cc1cc([C@H](C(=O)N2C[C@H](O)C[C@H]2C(=O)N[C@@H](CC(=O)N2CCC(N3CCC(C#Cc4ccc(C(=O)N[C@H]5C(C)(C)[C@H](Oc6ccc(C#N)c(Cl)c6)C5(C)C)cc4)CC3)CC2)c2ccccc2)C(C)C)on1`, for which the Activity in assay [1] was 62%; in assay [2] it was 72%; in assay [3] it was more than 99%.

Take `Cc1cc([C@H](C(=O)N2C[C@H](O)C[C@H]2C(=O)N[C@@H](CC(=O)N2CCC(N3CC(C#Cc4ccc(C(=O)N[C@H]5C(C)(C)[C@H](Oc6ccc(C#N)c(Cl)c6)C5(C)C)cc4)C3)CC2)c2ccccc2)C(C)C)on1`: the Activity stood at 6% in assay [1], 68% in assay [2] and 86% in assay [3].

On to `Cc1cc([C@H](C(=O)N2C[C@H](O)C[C@H]2C(=O)N[C@@H](CC(=O)N2CCC(c3ccc(C(=O)N[C@H]4C(C)(C)[C@H](Oc5ccc(C#N)c(Cl)c5)C4(C)C)cc3)CC2)c2ccccc2)C(C)C)on1`, for which the Activity is 38% in assay [1], more than 95% in assay [2] and more than 99% in assay [3].

Turning to `Cc1cc([C@H](C(=O)N2C[C@H](O)C[C@H]2C(=O)N[C@@H](CC(=O)N2CCC(C#Cc3ccc(C(=O)N[C@H]4C(C)(C)[C@H](Oc5ccc(C#N)c(Cl)c5)C4(C)C)cc3)CC2)c2ccc(F)cc2)C(C)C)on1`, the results for the Activity in assay [1], in assay [2] and in assay [3] were 62%, more than 95% and more than 99%, respectively.

In the case of `Cc1cc([C@H](C(=O)N2C[C@H](O)C[C@H]2C(=O)N[C@@H](CC(=O)N2CCC(N3CCC(C#Cc4ccc(C(=O)N[C@H]5C(C)(C)[C@H](Oc6ccc(C#N)c(Cl)c6)C5(C)C)cc4)CC3)CC2)c2ccc(C#N)cc2)C(C)C)on1`, the Activity in assay [1] is 81%; in assay [2] it was more than 95%; in assay [3], more than 99%.

Take `C#Cc1ccc([C@H](CC(=O)N2CCC(C#Cc3ccc(C(=O)N[C@H]4C(C)(C)[C@H](Oc5ccc(C#N)c(Cl)c5)C4(C)C)cc3)CC2)NC(=O)[C@@H]2C[C@@H](O)CN2C(=O)[C@@H](c2cc(C)no2)C(C)C)cc1`: the Activity in assay [1] is 76%; in assay [2] it was more than 95%; in assay [3] it was more than 99%.

For `Cc1cc([C@H](C(=O)N2C[C@H](O)C[C@H]2C(=O)N[C@@H](CC(=O)N2CCC(N3CCC(C#Cc4ccc(C(=O)N[C@H]5C(C)(C)[C@H](Oc6ccc(C#N)c(Cl)c6)C5(C)C)cc4)CC3)CC2)c2ccc(F)cc2)C(C)C)on1`, the Activity in assay [1] is 92%; in assay [2], more than 95%; in assay [3] it was more than 99%.

As for `Cc1cc([C@H](C(=O)N2C[C@H](O)C[C@H]2C(=O)N[C@@H](CC(=O)N2CCC(C#Cc3ccc(C(=O)N[C@H]4C(C)(C)[C@H](Oc5ccc(C#N)c(Cl)c5)C4(C)C)cc3)CC2)c2ccc(C#N)cc2)C(C)C)on1`, the Activity is 80% in assay [1], more than 95% in assay [2] and more than 99% in assay [3].
